{"source": "patent US7279304B2", "about": "“Methods for preparation of macrocyclic molecules and macrocyclic molecules prepared thereby” (President and Fellows of Harvard College, priority 2000, dated 2007)", "key": {"[1]": {"target": "T1, TycC TE (excised TE domain protein from the tyrocidine NRPS) (Brevibacillus parabrevis, UniProt O30409)", "T1 construct": "excised TE domain protein from the tyrocidine NRPS (TycC TE); made in house", "T1 sequence (O30409 6238-6486)": "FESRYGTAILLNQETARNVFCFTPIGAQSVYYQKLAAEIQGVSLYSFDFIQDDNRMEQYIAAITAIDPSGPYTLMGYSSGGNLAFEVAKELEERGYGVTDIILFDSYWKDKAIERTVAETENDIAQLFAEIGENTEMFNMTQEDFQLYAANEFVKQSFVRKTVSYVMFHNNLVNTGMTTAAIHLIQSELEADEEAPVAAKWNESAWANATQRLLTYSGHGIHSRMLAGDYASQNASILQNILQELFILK", "type": "biochemical", "details": "for cyclization rate compared with the substrate in Example 3: data not shown; for kcat / Km: Table 1, macrocyclization of peptide-SNAC substrate, 25 mM MOPS, pH 7.0; for thioester hydrolysis by TycC TE (result in words): kinetic parameters similar to the wild-type substrate (Ex. 3)", "description": "Macrocyclization reactions were carried out in 25 mM MOPS, pH 7.0 in a total volume of 400 μL. Reactions were initiated by addition of TycC TE and quenched at various time points by the addition of 25 μL 1.7% TFA/water, flash frozen in liquid nitrogen and stored at −80° C. (for Ex. 13, reactions were quenched by the addition of sodium phosphate, pH 5.3, to 100 mM). The reactions were then thawed, 85 μL acetonitrile added, and analyzed by analytical HPLC with monitoring at 220 nm (20% to 80% acetonitrile in 0.1% TFA/water, or in 25 mM potassium phosphate, pH 5.3 for Ex. 13, over 35 minutes, Vydac protein and peptide C18 column). Initial rates were calculated using 1 minute time points. Peptide-SNAC and reaction product concentrations were determined for all Tyr-containing peptides based on the estimated extinction coefficient ε (280 nm)=1,280 M^−1 cm^−1, which agrees with the experimentally determined ε (280 nm) of Ex. 1. For peptide-SNACs not containing Tyr, ε (220 nm) was determined experimentally, and concentrations of corresponding cyclic products determined by assuming equal ε (220 nm) values for the peptide-SNAC and cyclic product."}, "[2]": {"target": "T2, excised TE domain protein from the surfactin synthetase (Bacillus subtilis, UniProt Q08787)", "T2 construct": "the excised TE domain protein from the surfactin synthetase protein system; made in house", "T2 sequence (Q08787 1059-1271)": "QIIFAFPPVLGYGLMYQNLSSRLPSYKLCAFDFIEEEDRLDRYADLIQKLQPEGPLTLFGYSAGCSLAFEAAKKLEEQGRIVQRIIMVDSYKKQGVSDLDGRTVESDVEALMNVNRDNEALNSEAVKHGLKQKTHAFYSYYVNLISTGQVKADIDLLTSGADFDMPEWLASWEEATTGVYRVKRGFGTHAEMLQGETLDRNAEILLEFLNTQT", "assay": "Cyclization of thioester substrate to macrolactone by excised surfactin synthetase TE domain", "type": "biochemical", "from_the_text": "In accord with the present invention, other linear substrate molecules can be cyclized by other excised TE domain proteins besides the TE domain protein excised from the tyrocidine NRPS. […] The excised surfactin TE domain protein selectively cyclizes substrates with the (R)-hydroxybutanamide nucleophile versus substrates with the (S)-hydroxybutamide nucleophile.\nThe observed specificity of the surfactin TE domain supports that TE domains can cyclize a variety of substrates provided that certain key recognition elements that are generally near the parts of the molecule that are joined in the cyclization reaction are present. For example, substrate 27 contains a change in the sequence of the heptapeptide compared to the wild-type surfactin sequence (D-Leu3 is changed to D-Orn), but this substrate is nevertheless cyclized by the excised TE domain from surfactin synthetase. When the (R)-hydroxybutanamide nucleophile in compound 27 was changed to a (S)-hydroxybutanamide nucleophile (a change near the parts of the molecule joined by the cylization reaction), cyclization activity was abolished."}}, "note": "Where two headings read alike, the source gives them in different places. Where a SMILES comes first, the peptide text is derived from it. [ ]: non-standard residue; d: D form. The star is where a group is joined. ξ: configuration not given here. Butanoyl(3R-OH) = C[C@@H](O)CC(=O)*; dPhLac = O=C(O)[C@H](O)Cc1ccccc1; dOrn = NCCC[C@@H](N)C(=O)O; Hiv = CC(C)[C@H](O)C(=O)O; SCH2CH2NHAc = CC(=O)NCCS*; Orn = NCCC[C@H](N)C(=O)O; ξP = O=C(O)C1CCCN1", "data": [{"molecule": "CC(=O)NCCSC(=O)[C@H](CC(C)C)NC(=O)[C@H](CCCN)NC(=O)[C@@H](NC(=O)[C@H](Cc1ccc(O)cc1)NC(=O)[C@H](CCC(N)=O)NC(=O)[C@H](CC(N)=O)NC(=O)[C@@H](Cc1ccccc1)OC(=O)[C@H](Cc1ccccc1)NC(=O)C1CCCN1C(=O)[C@H](N)Cc1ccccc1)C(C)C", "note": "(stereo partly drawn) [compound 22] (H-[dF][ξP]F[dPhLac]NQYV[Orn]L-SCH2CH2NHAc)", "values": [{"measurement": "cyclization rate compared with the substrate in Example 3", "setting": "[1]", "result": "similar"}]}, {"molecule": "D-Phe-Pro-Val-Orn-Leu-SNAC [pentapeptide-SNAC]", "values": [{"measurement": "chain dimerization and subsequent cyclization to gramicidin S", "setting": "[1]; incubation of pentapeptide-SNAC with TycC TE", "result": "efficient chain dimerization and subsequent cyclization occurred"}]}, {"molecule": "Phe-Pro-Phe-D-Phe-Asn-Gln-Tyr-Val-Orn-Leu-SNAC [Example 4]", "values": [{"measurement": "cyclization by TycC TE domain (result in words)", "setting": "[1]", "result": "arrests cyclization activity"}, {"measurement": "kcat", "setting": "[1]", "result": 0}, {"measurement": "thioester hydrolysis by TycC TE (result in words)", "setting": "[1]", "result": "observed"}]}, {"molecule": "CC(=O)NCCSC(=O)[C@H](CC(C)C)NC(=O)[C@H](CCCN)NC(=O)[C@@H](NC(=O)[C@H](Cc1ccc(O)cc1)NC(=O)[C@H](CCC(N)=O)NC(=O)[C@H](CC(N)=O)NC(=O)[C@@H](Cc1ccccc1)NC(=O)[C@H](Cc1ccccc1)NC(=O)C1CCCN1C(=O)[C@H](O)Cc1ccccc1)C(C)C", "note": "(stereo partly drawn) [compound 24] (H-[dPhLac][ξP]F[dF]NQYV[Orn]L-SCH2CH2NHAc)", "values": [{"measurement": "cyclization by TycC TE domain (result in words)", "setting": "[1]", "result": "macrocyclized"}]}, {"molecule": "D-Ala-Pro-Phe-D-Phe-Asn-Gln-Tyr-Val-Orn-Leu-SNAC [Example 5]", "values": [{"measurement": "cyclization by TycC TE domain (result in words)", "setting": "[1]", "result": "arrests cyclization activity"}, {"measurement": "kcat", "setting": "[1]", "result": 0}, {"measurement": "thioester hydrolysis by TycC TE (result in words)", "setting": "[1]", "result": "observed"}]}, {"molecule": "CC(=O)NCCSC(=O)[C@H](CC(C)C)NC(=O)[C@@H](CC(C)C)NC(=O)[C@H](CC(=O)O)NC(=O)[C@@H](NC(=O)[C@@H](CCCN)NC(=O)[C@H](CC(C)C)NC(=O)[C@H](CCC(=O)O)NC(=O)C[C@@H](C)O)C(C)C", "note": "[compound 27] ({Butanoyl(3R-OH)}-EL[dOrn]VD[dL]L-SCH2CH2NHAc)", "values": [{"measurement": "cyclization to macrolactone by excised surfactin TE domain", "setting": "[2]", "result": "efficiently cyclized"}]}, {"molecule": "CC(=O)NCCSC(=O)[C@H](CC(C)C)NC(=O)[C@H](CCCN)NC(=O)[C@@H](OC(=O)[C@H](Cc1ccc(O)cc1)NC(=O)[C@H](CCC(N)=O)NC(=O)[C@H](CC(N)=O)NC(=O)[C@@H](Cc1ccccc1)NC(=O)[C@H](Cc1ccccc1)NC(=O)C1CCCN1C(=O)[C@H](N)Cc1ccccc1)C(C)C", "note": "(stereo partly drawn) [compound 23] (H-[dF][ξP]F[dF]NQY[Hiv][Orn]L-SCH2CH2NHAc)", "values": [{"measurement": "cyclization rate compared with the substrate in Example 3", "setting": "[1]", "result": "similar"}]}, {"molecule": "D-Phe-Pro-Val-Orn-Leu-D-Phe-Pro-Val-Orn-Leu-SNAC [Example 17]", "values": [{"measurement": "kcat", "setting": "[1]", "result": 12}, {"measurement": "Km", "setting": "[1]; read-out: KM", "result": 5, "unit": "µM"}, {"measurement": "KM as compared to Ex. 3", "setting": "[1]; cyclization", "result": "comparable"}, {"measurement": "reduction in kcat relative to wild-type substrate (Ex. 3)", "setting": "[1]; cyclization", "result": 5, "unit": "fold"}]}, {"molecule": "CC(=O)NCCSC(=O)[C@H](CC(C)C)NC(=O)[C@H](CCCN)NC(=O)[C@@H](NC(=O)[C@H](Cc1ccc(O)cc1)NC(=O)[C@H](CCC(N)=O)NC(=O)[C@H](CC(N)=O)NC(=O)[C@@H](Cc1ccccc1)NC(=O)[C@H](Cc1ccccc1)NC(=O)[C@@H]1CCCN1C(=O)[C@H](N)Cc1ccccc1)C(C)C", "note": "[Example 3, D-Phe-Pro-Phe-D-Phe-Asn-Gln-Tyr-Val-Orn-Leu-SNAC] (H-[dF]PF[dF]NQYV[Orn]L-SCH2CH2NHAc)", "values": [{"measurement": "Km", "setting": "[1]", "result": 3, "unit": "µM"}]}]}
